# From US4956294A, “Culture of Streptoverticillium synroense for producing an antibacterial” (Merck & Co., Inc., priority 1989, dated 1990)
# “Also recorded” adds a separate entry of the source.
# Key:
# [1] = system: Proteus vulgaris 1012; assay: Inhibition zone, agar plate; assay type: cell-based
# [2] = system: Sarcina lutea 1101 (934); assay: Inhibition zone, agar plate; assay type: cell-based; settings: Micrococcus luteus, 15λ, read-out: Inhibition Zone Diameter
# [3] = system: Salmonella gallinarum 1287; assay: Inhibition zone, agar plate; assay type: cell-based; settings: Salmonella enterica, 15λ, read-out: Inhibition Zone Diameter
# [4] = system: Xanthomonas vesicatoria 815; assay: Inhibition zone, agar plate; assay type: cell-based; settings: 15λ, read-out: Inhibition Zone Diameter
# [5] = system: Pseudomonas stutzeri 1231 (11607); assay: Inhibition zone, agar plate; assay type: cell-based; settings: Stutzerimonas stutzeri, 15λ, read-out: Inhibition Zone Diameter
# [6] = system: Klebsiella pneumoniae 1264; assay: Inhibition zone, agar plate; assay type: cell-based; settings: 15λ, read-out: Inhibition Zone Diameter
# [7] = system: Pseudomonas aeruginosa 2824; assay: Inhibition zone, agar plate; assay type: cell-based; settings: 15λ, read-out: Inhibition Zone Diameter
# [8] = system: Escherichia coli 60 (9637); assay: Inhibition zone, agar plate; assay type: cell-based; settings: 15λ, read-out: Inhibition Zone Diameter
# [9] = system: Streptococcus agalactiae 2875; assay: Inhibition zone, agar plate; assay type: cell-based; settings: 15λ, read-out: Inhibition Zone Diameter
# [10] = system: Proteus vulgaris 2112 (episome); assay: Inhibition zone, agar plate; assay type: cell-based; settings: read-out: Inhibition Zone Diameter
# [11] = system: Proteus mirabilis 3126; assay: Inhibition zone, agar plate; assay type: cell-based
# [12] = system: Aspergillus niger 442; assay: Inhibition zone, agar plate; assay type: cell-based; settings: 15λ, read-out: Inhibition Zone Diameter
# [13] = system: Actinomyces naeslundii 4053; assay: Anaerobic agar dilution, Wilkens-Chalgren agar; assay type: cell-based; settings: Actinomyces naeslundii, 4053, 48 h
# [14] = system: Eubacterium limosum 3344; assay: Anaerobic agar dilution, Wilkens-Chalgren agar; assay type: cell-based; settings: inoculum 10^6 cfu/spot, 35° C., 48 hours
# Description: (a) Wilkens-Chalgren agar was used instead of antagonist-free medium (Roche);
# (b) The inoculum/spot was about 10^6 instead of about 10^4 ;
# (c) The incubation period was for 48 hours, not 24 hours; and
# (d) Incubations were performed under anaerobic conditions.
# [15] = system: Clostridium perfringens NCCLS control strain 4418; assay: microbe, parasite or virus in culture; assay type: cell-based; settings: 48 h
# [16] = system: C. perfringens 3508; assay: microbe, parasite or virus in culture; assay type: cell-based; settings: Clostridium perfringens, 3508, 48 h
# [17] = system: C. perfringens 3513; assay: microbe, parasite or virus in culture; assay type: cell-based; settings: Clostridium perfringens, 3513, 48 h
# [18] = system: C. difficile Fox^r 4380; assay: Anaerobic agar dilution, Wilkens-Chalgren agar; assay type: cell-based; settings: Clostridioides difficile, 48 h
# [19] = system: B. fragilis Pen^r 3214; assay: Anaerobic agar dilution, Wilkens-Chalgren agar; assay type: cell-based; settings: Bacteroides fragilis, 48 h
# [20] = system: B. distasonis Pen^r, Fox^r 3445; assay: Anaerobic agar dilution, Wilkens-Chalgren agar; assay type: cell-based; settings: Parabacteroides distasonis, 48 h
# [21] = system: B. thetalotamicron Clind^r 4362; assay: Anaerobic agar dilution, Wilkens-Chalgren agar; assay type: cell-based; settings: 48 h
# [22] = system: B. thetalotamicron Clind^r, NCCLS control strain 4420; assay: Anaerobic agar dilution, Wilkens-Chalgren agar; assay type: cell-based; settings: 48 h
# [23] = system: B. asaccharolyticus 4271; assay: Anaerobic agar dilution, Wilkens-Chalgren agar; assay type: cell-based; settings: Porphyromonas asaccharolytica, 4271, 48 h
# [24] = system: S. aureus Gm^r Meth^r 4310; assay: Agar dilution, trypticase soy agar; settings: Staphylococcus aureus, 20 h
# [25] = system: Sal. typhimurium 3860; assay: Agar dilution, trypticase soy agar; settings: Salmonella enterica, 20 h
# [26] = system: Ent. cloacae P99+ 2646; assay: Agar dilution, trypticase soy agar; settings: Enterobacter cloacae, 20 h
# [27] = system: K. pneumoniae K1+ 4354; assay: Agar dilution, trypticase soy agar; settings: Klebsiella pneumoniae, 20 h
# [28] = system: K. pneumoniae 4005; assay: Agar dilution, trypticase soy agar; settings: Klebsiella pneumoniae, 4005, 20 h
# [29] = system: Prot. vulgaris 2829; assay: Agar dilution, trypticase soy agar; settings: Proteus vulgaris, 2829, 20 h
# [30] = system: Prot. morganii Sm^r 2833; assay: Agar dilution, trypticase soy agar; settings: Morganella morganii, 20 h
# [31] = system: Prot. mirabilis Gm^r 2830; assay: Agar dilution, trypticase soy agar; settings: Proteus mirabilis, 20 h
# [32] = system: Ser. marcescens 2840; assay: Agar dilution, trypticase soy agar; settings: Serratia marcescens, 2840, 20 h
# [33] = system: E. coli TEM 2+ 4351; assay: Agar dilution, antagonist-free medium; settings: Escherichia coli, 20 h
# [34] = system: Sal. typhimurium 3860; assay: Agar dilution, antagonist-free medium; settings: Salmonella enterica, 20 h
# [35] = system: Ps. aeruginosa 4279; assay: Agar dilution, antagonist-free medium; settings: Pseudomonas aeruginosa, 4279, 20 h
# [36] = system: Pasteurella multocida (4678); assay: Protection and survival of infected mice; settings: intraperitoneal
structure (smiles),measurement,setting,value
"C[C@H](CNC(=O)[C@H]1N=C(c2cccc(O)c2O)O[C@@H]1C)C(=O)N[C@@H]1CCCN(O)C1=O [L-654,040, 2-(2,3-dihydroxyphenyl)-4,5-dihydro-N-[3-[(1-hydroxy-2-oxo-3(R)-piperidinyl)-amino]-2(R)-methyl-3-oxopropyl]-5R-methyl-4S-oxazolecarboxamide]",zone of inhibition at 500 µg/mL,"[1]; Proteus vulgaris, 1012, read-out: Inhibition Zone Diameter",24 mm
same,zone of inhibition at 2000 µg/mL,"[1]; Proteus vulgaris, 1012, 2 mg/ml in distilled H2O, 15λ, read-out: Inhibition Zone Diameter",34 mm
same,zone of inhibition at 500 µg/mL,[2]; 0.5 mg/ml in distilled H2O,12 mm
same,zone of inhibition at 2000 µg/mL,[2]; 2 mg/ml in distilled H2O,17 mm
same,zone of inhibition at 500 µg/mL,[3]; 0.5 mg/ml in distilled H2O,0 mm
same,zone of inhibition at 2000 µg/mL,[3]; 2 mg/ml in distilled H2O,0 mm
same,zone of inhibition at 500 µg/mL,[4]; 0.5 mg/ml in distilled H2O,0 mm
same,zone of inhibition at 2000 µg/mL,[4]; 2 mg/ml in distilled H2O,0 mm
same,zone of inhibition at 500 µg/mL,[5]; 0.5 mg/ml in distilled H2O,12 mm
same,zone of inhibition at 2000 µg/mL,[5]; 2 mg/ml in distilled H2O,13 mm
same,zone of inhibition at 500 µg/mL,[6]; 0.5 mg/ml in distilled H2O,0 mm
same,zone of inhibition at 2000 µg/mL,[6]; 2 mg/ml in distilled H2O,0 mm
same,zone of inhibition at 500 µg/mL,[7]; 0.5 mg/ml in distilled H2O,0 mm
same,zone of inhibition at 2000 µg/mL,[7]; 2 mg/ml in distilled H2O,0 mm
same,zone of inhibition at 500 µg/mL,[8]; 0.5 mg/ml in distilled H2O,0 mm
same,zone of inhibition at 2000 µg/mL,[8]; 2 mg/ml in distilled H2O,0 mm
same,zone of inhibition at 500 µg/mL,[9]; 0.5 mg/ml in distilled H2O,12 mm
same,zone of inhibition at 2000 µg/mL,[9]; 2 mg/ml in distilled H2O,13 mm
same,zone of inhibition at 500 µg/mL,[10],16 mm
same,zone of inhibition at 2000 µg/mL,[10],28 mm
same,zone of inhibition at 500 µg/mL,"[11]; Proteus mirabilis, 3126, read-out: Inhibition Zone Diameter",24 mm
same,zone of inhibition at 2000 µg/mL,"[11]; Proteus mirabilis, 3126, 2 mg/ml in distilled H2O, 15λ, read-out: Inhibition Zone Diameter",25 mm
same,zone of inhibition at 500 µg/mL,[12]; 0.5 mg/ml in distilled H2O,0 mm
same,zone of inhibition at 2000 µg/mL,[12]; 2 mg/ml in distilled H2O,0 mm
same,MIC,[13],128 µg/mL
same,MIC,[14],128 µg/mL
same,MIC,[15],64 µg/mL
same,MIC,[16],64 µg/mL
same,MIC,[17],128 µg/mL
same,MIC,[18],128 µg/mL
same,MIC,[19],> 128 µg/mL
same,MIC,[20],> 128 µg/mL
same,MIC,[21],> 128 µg/mL
same,MIC,[22],> 128 µg/mL
same,MIC,[23],> 128 µg/mL
same,MIC,[24],128 µg/mL
same,MIC,[25],> 128 µg/mL
same,MIC,[26],> 128 µg/mL
same,MIC,[27],> 128 µg/mL
same,MIC,[28],> 128 µg/mL
same,MIC,[29],> 128 µg/mL
same,MIC,[30],> 128 µg/mL
same,MIC,[31],> 128 µg/mL
same,MIC,[32],> 128 µg/mL
same,MIC,[33],> 256 µg/mL
same,MIC,[34],> 256 µg/mL
same,MIC,[35],> 256 µg/mL
same,protection against infection,[36],did not protect
same,statistical significance of prolonged survival,[36]; two Pasteurella tests,statistically significant at one level in two Pasteurella tests
same,survival time,[36]; 160 mg/kg x 2,prolongation of survival time was observed; also recorded: did prolong the survival time; also recorded: increases survival time
